target: T1, Human 5-lipoxygenase (Homo sapiens, UniProt P09917); assay: Activity of compounds against 5-LO enzyme (LTB4 measurement and/or fluorescence method); format: biochemical; settings: 5-LO, single concentration of 10 uM in duplicate
T1 construct: purchased Cayman 60402; host or cells: insect cells
T1 sequence (P09917 1-674): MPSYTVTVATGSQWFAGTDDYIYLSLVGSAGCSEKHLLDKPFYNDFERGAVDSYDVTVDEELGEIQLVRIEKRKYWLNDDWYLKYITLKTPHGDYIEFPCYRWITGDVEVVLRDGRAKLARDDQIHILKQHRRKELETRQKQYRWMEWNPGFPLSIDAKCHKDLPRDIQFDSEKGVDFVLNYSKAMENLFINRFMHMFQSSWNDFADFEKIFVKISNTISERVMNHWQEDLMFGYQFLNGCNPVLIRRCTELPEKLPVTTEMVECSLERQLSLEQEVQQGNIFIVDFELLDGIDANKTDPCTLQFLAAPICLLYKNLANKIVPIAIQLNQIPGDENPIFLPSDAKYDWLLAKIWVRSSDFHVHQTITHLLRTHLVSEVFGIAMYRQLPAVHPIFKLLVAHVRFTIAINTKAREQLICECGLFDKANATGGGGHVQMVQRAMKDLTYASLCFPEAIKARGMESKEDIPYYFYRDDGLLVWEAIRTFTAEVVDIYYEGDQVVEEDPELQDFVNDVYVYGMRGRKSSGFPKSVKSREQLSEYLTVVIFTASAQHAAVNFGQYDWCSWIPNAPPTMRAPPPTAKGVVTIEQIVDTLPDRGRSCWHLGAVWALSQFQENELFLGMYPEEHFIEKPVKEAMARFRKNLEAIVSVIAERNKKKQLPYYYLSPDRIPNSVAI
Procedure, shortened: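 Two read-outs: LTB4 measured by EIA and/or LC/MS/MS with LTB4-d4 standard after 15 min RT compound preincubation with insect-cell 5-LO and a 5 min 37 °C reaction on 3 uM arachidonic acid (0.1 mM ATP, pH 7.4). The room-temperature fluorescence format used 20 uM H2DCFDA, 100 uM ATP, 3 uM arachidonic acid, 5 min; IC50 from 6/11-point curves.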

`CCc1nc2cc(Cl)ccn2c1C(=O)NCc1ccc(N2CCC(C(=O)N(C)C)CC2)cc1` [compound 294, 7-Chloro-N-(4-(4-(dimethylcarbamoyl)piperidin-1-yl)benzyl)-2-ethylimidazo[1,2-a]pyridine-3-carboxamide] and `CCc1nc2ccc(Cl)cn2c1C(=O)NCc1ccc(N2CCC(C(=O)O)CC2)cc1` [compound 307, 1-(4-((6-Chloro-2-ethylimidazo[1,2-a]pyridine-3-carboxamido)methyl)phenyl)piperidine-4-carboxylic acid] cannot be ordered by inhibition at 10 µM: under 40% for the first, under 40% for the second.

Compared with `CCc1nc2cc(Cl)ccn2c1C(=O)NCc1ccc(N2CCC(COC(F)F)CC2)cc1` [compound 295, 7-Chloro-N-(4-(4-((difluoromethoxy)methyl)piperidin-1-yl)benzyl)-2-ethylimidazo[1,2-a]pyridine-3-carboxamide], `CCc1nc2cc(Cl)ccn2c1C(=O)NCc1ccc(N2CCC(OCc3ccc(F)cc3)CC2)cc1` [compound 301, 7-Chloro-2-ethyl-N-(4-(4-(4-fluorobenzyloxy)piperidin-1-yl)benzyl)imidazo[1,2-a]pyridine-3-carboxamide] is lower in inhibition at 10 µM: over 69% for the first, 40 to 69% for the second.

Compared with `CCc1nc2ccc(Cl)cn2c1C(=O)NCc1ccc(N2CCC(c3ccc(Cl)cc3)CC2)cc1` [compound 296, 6-Chloro-N-(4-(4-(4-chlorophenyl)piperidin-1-yl)benzyl)-2-ethylimidazo[1,2-a]pyridine-3-carboxamide], `CCc1nc2ccc(Cl)cn2c1C(=O)NCc1ccc(N2CCC(Oc3ccc(F)cc3)CC2)cc1` [compound 308, 6-Chloro-2-ethyl-N-(4-(4-(4-fluorophenoxy)piperidin-1-yl)benzyl)imidazo[1,2-a]pyridine-3-carboxamide] is lower in inhibition at 10 µM: over 69% for the first, 40 to 69% for the second.

`CCc1nc2ccc(Cl)cn2c1C(=O)NCc1ccc(N2CCC(OCc3ccc(F)cc3)CC2)cc1` [compound 300, 6-Chloro-2-ethyl-N-(4-(4-(4-fluorobenzyloxy)piperidin-1-yl)benzyl)imidazo[1,2-a]pyridine-3-carboxamide] and `CCc1nc2ccc(Cl)cn2c1C(=O)NCc1ccc(N2CCC(OCc3ccccc3)CC2)cc1` [compound 317, N-(4-(4-(benzyloxy)piperidin-1-yl)benzyl)-6-chloro-2-ethylimidazo[1,2-a]pyridine-3-carboxamide] cannot be ordered by inhibition at 10 µM: under 40% for the first, under 40% for the second.

`CCc1nc2cc(Cl)ccn2c1C(=O)NCc1ccc(N2CCOCC2)c(Cl)c1` [compound 303, 7-Chloro-N-(3-chloro-4-morpholinobenzyl)-2-ethylimidazo[1,2-a]pyridine-3-carboxamide] and `CCc1nc2ccc(C)cn2c1C(=O)NCc1ccc(N2CCOCC2)cc1` [compound 315, 2-ethyl-6-methyl-N-(4-morpholinobenzyl)imidazo[1,2-a]pyridine-3-carboxamide] cannot be ordered by inhibition at 10 µM: under 40% for the first, under 40% for the second.

`CCc1nc2ccc(Cl)cn2c1C(=O)NCc1ccc(N2CCC(NC(=O)Cc3ccc(F)cc3)CC2)cc1` [compound 316, 6-chloro-2-ethyl-N-(4-(4-(2-(4-fluorophenyl)acetamido)piperidin-1-yl)benzyl)imidazo[1,2-a]pyridine-3-carboxamide] and `CCc1nc2ccc(Cl)cn2c1C(=O)NCc1ccc(N2CCC(NC(=O)c3ccc(F)cc3)CC2)cc1` [compound 318, 6-chloro-2-ethyl-N-(4-(4-(4-fluorobenzamido)piperidin-1-yl)benzyl)imidazo[1,2-a]pyridine-3-carboxamide] cannot be ordered by inhibition at 10 µM: under 40% for the first, under 40% for the second.

`CCc1nc2ccc(Cl)cn2c1C(=O)NCc1ccc(N2CCN(C(=O)c3ccc(F)cc3)CC2)cc1` [compound 319, 6-chloro-2-ethyl-N-(4-(4-(4-fluorobenzoyl)piperazin-1-yl)benzyl)imidazo[1,2-a]pyridine-3-carboxamide] and `CCc1nc2ccc(Cl)cn2c1C(=O)NCc1ccc(N2CCN(C(=O)Cc3ccc(F)cc3)CC2)cc1` [compound 320, 6-chloro-2-ethyl-N-(4-(4-(2-(4-fluorophenyl)acetyl)piperazin-1-yl)benzyl)imidazo[1,2-a]pyridine-3-carboxamide] cannot be ordered by inhibition at 10 µM: under 40% for the first, under 40% for the second.

`CCc1nc2ccc(Cl)cn2c1C(=O)NCc1ccc(N2CCC(C)(O)CC2)cc1` [compound 321, 6-chloro-2-ethyl-N-(4-(4-hydroxy-4-methylpiperidin-1-yl)benzyl)imidazo[1,2-a]pyridine-3-carboxamide] and `CCc1nc2ccc(Cl)cn2c1C(=O)NCc1ccc(N2CCC(O)(C(C)(C)C)CC2)cc1` [compound 322, N-(4-(4-(tert-butyl)-4-hydroxypiperidin-1-yl)benzyl)-6-chloro-2-ethylimidazo[1,2-a]pyridine-3-carboxamide] cannot be ordered by inhibition at 10 µM: under 40% for the first, under 40% for the second.

`CCc1nc2ccc(Cl)cn2c1C(=O)NCc1ccc(N2CCC(C(=O)c3ccc(F)cc3)CC2)cc1` [compound 323, 6-chloro-2-ethyl-N-(4-(4-(4-fluorobenzoyl)piperidin-1-yl)benzyl)imidazo[1,2-a]pyridine-3-carboxamide] and `CCc1nc2ccc(Cl)cn2c1C(=O)NCc1ccc(N2CCC(C(=O)Cc3ccc(F)cc3)CC2)cc1` [compound 325, 6-chloro-2-ethyl-N-(4-(4-(2-(4-fluorophenyl)acetyl)piperidin-1-yl)benzyl)imidazo[1,2-a]pyridine-3-carboxamide] cannot be ordered by inhibition at 10 µM: under 40% for the first, under 40% for the second.

Compared with `CCc1nc2ccc(Cl)cn2c1C(=O)NCc1ccc(N2CCC(C(=O)c3ccc(OC(F)(F)F)cc3)CC2)cc1` [compound 324, 6-chloro-2-ethyl-N-(4-(4-(4-(trifluoromethoxy)benzoyl)piperidin-1-yl)benzyl)imidazo[1,2-a]pyridine-3-carboxamide], `CCc1nc2ccc(Cl)cn2c1C(=O)NCc1ccc(C2CCN(C(=O)c3ccc(F)cc3)CC2)cc1` [compound 326, 6-chloro-2-ethyl-N-(4-(1-(4-fluorobenzoyl)piperidin-4-yl)benzyl)imidazo[1,2-a]pyridine-3-carboxamide] is lower in inhibition at 10 µM: over 69% for the first, under 40% for the second.

`CCc1nc2ccc(Cl)cn2c1C(=O)NCc1ccc(N2CCC(O)(c3ccccc3)CC2)cc1` [compound 328, 6-chloro-2-ethyl-N-(4-(4-hydroxy-4-phenylpiperidin-1-yl)benzyl)imidazo[1,2-a]pyridine-3-carboxamide] and `CCc1nc2ccc(Cl)cn2c1C(=O)NCc1ccc(/C=C/c2ccc(F)cc2)cc1` [compound 329, (E)-6-chloro-2-ethyl-N-(4-(4-fluorostyryl)benzyl)imidazo[1,2-a]pyridine-3-carboxamide] cannot be ordered by inhibition at 10 µM: under 40% for the first, under 40% for the second.

`CCc1nc2ccc(Cl)cn2c1C(=O)N1CCC(OCc2ccc(C)cc2)CC1` [compound 331, (6-chloro-2-ethylimidazo[1,2-a]pyridin-3-yl)(4-((4-methylbenzyl)oxy)piperidin-1-yl)methanone] and `CCc1nc2ccc(Cl)cn2c1C(=O)N1CCC(OCc2ccc(Cl)cc2)CC1` [compound 332, (6-chloro-2-ethylimidazo[1,2-a]pyridin-3-yl)(4-((4-chlorobenzyl)oxy)piperidin-1-yl)methanone] cannot be ordered by inhibition at 10 µM: under 40% for the first, under 40% for the second.

`CCc1nc2ccc(Cl)cn2c1C(=O)N1CCC(OCc2ccc(F)cc2)CC1` [compound 333, (6-chloro-2-ethylimidazo[1,2-a]pyridin-3-yl)(4-((4-fluorobenzyl)oxy)piperidin-1-yl)methanone] and `CCc1nc2ccc(Cl)cn2c1C(=O)N1CCC(OCc2ccc(OC)cc2)CC1` [compound 335, (6-chloro-2-ethylimidazo[1,2-a]pyridin-3-yl)(4-((4-methoxybenzyl)oxy)piperidin-1-yl)methanone] cannot be ordered by inhibition at 10 µM: under 40% for the first, under 40% for the second.

`CCc1nc2ccc(Cl)cn2c1C(=O)N1CCC(OCc2ccc(C(F)(F)F)cc2)CC1` [compound 334, (6-chloro-2-ethylimidazo[1,2-a]pyridin-3-yl)(4-((4-(trifluoromethyl)benzyl)oxy)piperidin-1-yl)methanone] and `CCc1nc2ccc(Cl)cn2c1C(=O)N1CCC(OCc2cccc(F)c2)CC1` [compound 336, (6-chloro-2-ethylimidazo[1,2-a]pyridin-3-yl)(4-((3-fluorobenzyl)oxy)piperidin-1-yl)methanone] cannot be ordered by inhibition at 10 µM: under 40% for the first, under 40% for the second.

`CCc1nc2ccc(Cl)cn2c1C(=O)N1CCC(OCc2ccccc2F)CC1` [compound 337, (6-chloro-2-ethylimidazo[1,2-a]pyridin-3-yl)(4-((2-fluorobenzyl)oxy)piperidin-1-yl)methanone] and `CCc1nc2ccc(Cl)cn2c1CNCc1ccc(F)cc1` [compound 338, 1-(6-chloro-2-ethylimidazo[1,2-a]pyridin-3-yl)-N-(4-fluorobenzyl)methanamine] cannot be ordered by inhibition at 10 µM: under 40% for the first, under 40% for the second.

same assay, conditions: 6 or 11 point dose response in duplicate

`CCc1nc2cc(Cl)ccn2c1C(=O)NCc1ccc(N2CCC(COC(F)F)CC2)cc1` [compound 295, 7-Chloro-N-(4-(4-((difluoromethoxy)methyl)piperidin-1-yl)benzyl)-2-ethylimidazo[1,2-a]pyridine-3-carboxamide] and `CCc1nc2ccc(Cl)cn2c1C(=O)N1CCC(OCc2ccccc2)CC1` [compound 330, (4-(benzyloxy)piperidin-1-yl)(6-chloro-2-ethylimidazo[1,2-a]pyridin-3-yl)methanone] cannot be ordered by IC50: over 20 µM for the first, over 20 µM for the second.

Reference: patent publication US9029389B2 (Institut Pasteur Korea, priority 2011, dated 2015)
